Test results: patent US20250236614A1, “BICYCLIC TETRAHYDROAZEPINE DERIVATIVES” (Hoffmann-La Roche Inc., priority 2022, published 2025)
Read-outs that look alike come from different tables or passages of the source.

Key:
primary human T-cells = test: T-cell proliferation assay (CellTiter-Glo); format: cell-based; conditions: isomer A; for EC50: CD3 antibody-stimulated T-cells, CellTiter-Glo after 5 days, read-out: Tcell Proliferation CD3 EC50; for Emax: read-out: Emax proliferation (% activation)
Description: Expanded primary human T-cells are thawed and cultured in RPMI 1640 (Gibco, #61870-010)+5% human serum (HS, Sigma, #H3667)+1 mM Sodium Pyruvate (Gibco, #11360-039)+50 μM 2-mercaptoethanol (Gibco, #31350-010) and 1× Pen-Strep (Life Technologies, #15140122) medium at density of 2 Mio/ml for 3 hours in 5% CO2, 37° C. and 95% humidity. For coating of plates, PBS++ only or PBS++ with CD3 antibody (concentration depending on donor and determined by CD3 titrations) is added 100 μl/well to Poly-D Lysine coated 96-well plates. Plates are sealed and incubated at room temperature for 3 hours on a table-top rocking platform. After incubation, plates are washed once with PBS−− and filled with 40 μl/well culture medium only. Compounds are then added (see next section) to medium only plates. After 3 hours of culturing the T-cells, cells are filtered through a cell strainer (Miltenyi Biotech, #130-041-407), counted again and concentration is adjusted to 1.25 Mio/ml.
Cells are then seeded 80 μl/well to the 40 μl/well including dispensed compounds according to plate layout. By adding cells, compounds are further diluted 1:3, and resulting in 100k cells/120 μl/well. After 48 hours 40 μl of supernatant is collected carefully from the top while not disturbing the cells. Cells are assessed for proliferation 5 days later by measuring […] using CellTiterGlo (Promega).
Compounds were added in a 5 or 6 pt dose response with the Tecan D300e Digital Dispenser, all conditions 3 times more concentrated than the end-concentration, since cells are added afterwards (80 μl cells to 40 μl prepared medium with treatment). The DR was starting at 20 μM or 10 μM final top concentration and a dilution factor of 3.333. The positive control was the reference compound A1 that was added in a dose response as well, additionally to 3 wells of only 20 μM representing the positive stimulator control. All wells were normalized with DMSO to a final concentration of 0.6% (0.2% end-concentration).
After 5 days, for detection of ATP which is directly proportional to the number of cells present per well, the CellTiter-Glo® 2.0 Reagent is used. After visual control for toxicity or precipitations of the tested compounds, the plates are equilibrated to room temperature for 45 minutes. CellTiter-Glo® 2.0 Reagent is equilibrated to room temperature as well. After equilibration, an equal amount of CellTiter-Glo reagent is added to the cells (80 μl/well) with an electronic multichannel pipette. Plates are placed on a rocking platform for 15 minutes at room temperature. After incubation, the bottom of the plates is sealed with backing tape. Luminescence is measured with PHERAstar FSX (interval time 0.5 sec, gain 3000, focal height 15 mm) and exported as CSV file for analysis in Genedata screener.
CD3 and PBS plates were analysed separately in Genedata Screener using Roche Normalization PCT_POS_CTRL with DMSO set as Neutral Control and 20 μM of the reference compound A1 set as Stimulator Control/100%.
For CD3 conditions EC50 and Emax of the fitted sigmoidal curve were reported. If no curve could be fitted, the EC50 was reported as blank field and the Emax was based on individual data points. […] Compounds which activate unstimulated cells (see IL2 measurements) or compounds which negatively affected viability were flagged.

[1] = molecular target: T1, hDGKzeta(1-928)-N-His (DGKZ) (Homo sapiens, UniProt Q13574); test: In vitro DGK inhibition assay (ADP-Glo, in house), DGK zeta; format: biochemical; conditions: isomer A; 2 nM DGK ζ, 50 μM ATP, 125 μM DLG in liposomes, 1 hour reaction; read-out: DGKzeta ADP Glo assay IC50
T1 construct: hDGKzeta(1-928)-N-His; His (N)
T1 sequence (Q13574 whole entry): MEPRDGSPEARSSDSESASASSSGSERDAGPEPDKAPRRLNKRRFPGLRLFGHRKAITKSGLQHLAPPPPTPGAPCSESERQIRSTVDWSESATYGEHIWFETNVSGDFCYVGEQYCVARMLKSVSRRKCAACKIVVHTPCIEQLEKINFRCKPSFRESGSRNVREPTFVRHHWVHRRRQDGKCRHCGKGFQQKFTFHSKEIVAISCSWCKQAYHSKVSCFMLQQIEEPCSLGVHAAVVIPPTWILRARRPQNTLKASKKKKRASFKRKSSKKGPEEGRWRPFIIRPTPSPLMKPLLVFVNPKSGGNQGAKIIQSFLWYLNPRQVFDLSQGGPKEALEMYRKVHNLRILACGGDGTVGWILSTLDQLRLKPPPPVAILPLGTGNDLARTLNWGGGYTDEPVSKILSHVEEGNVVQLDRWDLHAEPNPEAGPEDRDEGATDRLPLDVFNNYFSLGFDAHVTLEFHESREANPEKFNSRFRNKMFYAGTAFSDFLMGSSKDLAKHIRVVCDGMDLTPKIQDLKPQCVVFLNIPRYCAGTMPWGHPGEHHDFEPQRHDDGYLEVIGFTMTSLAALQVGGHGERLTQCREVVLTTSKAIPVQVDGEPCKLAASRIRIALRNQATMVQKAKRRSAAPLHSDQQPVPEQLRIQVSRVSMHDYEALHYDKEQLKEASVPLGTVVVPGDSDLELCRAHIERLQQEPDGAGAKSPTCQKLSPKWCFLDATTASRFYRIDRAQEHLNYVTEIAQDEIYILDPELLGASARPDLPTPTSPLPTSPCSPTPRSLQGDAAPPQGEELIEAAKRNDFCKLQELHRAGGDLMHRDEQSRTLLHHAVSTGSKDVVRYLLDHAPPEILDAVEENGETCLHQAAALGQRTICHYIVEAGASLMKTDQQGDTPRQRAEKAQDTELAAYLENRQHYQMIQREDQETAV
Description: DGK α and ζ kinase use ATP to phosphorylate the substrate 1,2-dilauroyl-sn-glycerol (DLG, incorporated in the liposomes). ATP is converted to ADP as a result of this enzymatic reaction.
After the kinase reaction, an ATP-depletion reagent is added to terminate the kinase reaction and deplete any remaining ATP, leaving only ADP. Second, a detection reagent is added to simultaneously convert ADP to ATP and allow the newly synthesized ATP to be converted to light using a coupled luciferase/luciferin reaction.
Full length DGKA and Z were expressed in Sf21 insect cells by infecting the cells with the baculovirus stock at MOI of 2. Purification of both enzymes was performed as previously described by Takahashi et al., PeerJ, 2018 (Takahashi, D.; Sakane, F. Expression and purification of human diacylglycerolkinase alpha from baculovirus-infected insect cells for structural studies. PeerJ2018, 6, No. e5449).
A concentrated liposome solution was prepared in assay buffer without DTT and BSA: 2 mM of DLG in 21 mM of total liposome (2 mM DLG/8 mM PS/11 mM PC). The reaction mixtures contain the assay buffer with a final DLG concentration of 125 μM ATP concentrations of 25 μM (for DGKA assay) or 50 μM (for DGKZ assay). The reactions were started by addition of DGK α and ζ kinases at 4 nM and 2 nM final concentrations, respectively. After 1 hour reaction, the amount of ADP formed was detected with the ADP-Glo kinase assay (Promega) according to the manufacturer instructions. Compounds were added in 11I-points dose response, starting at 10 mM, 1:3 dilutions, with a final DMSO concentration of […]. The multidrop combi was used as a liquid handler and luminescence was read with 0.5 s by the envision reader (PE).

[2] = Homo sapiens, T-cell, 120 h, CD3 condition, 5 days, 20 μM reference compound A1 = 100%, DMSO neutral control

Molecule | EC50 (primary human T-cells; Homo sapiens, T-cell, 120 h) | Emax (primary human T-cells; [2]) | IC50 [1] | EC50 (primary human T-cells) | Emax proliferation (% activation) (primary human T-cells; CD3 condition, 5 days, 20 μM reference compound A1 = 100%, DMSO neutral control)
CC(C)(C#N)c1nnc(-c2cc3c(cc2F)C(F)(F)C[C@@H](N)C(=O)N3Cc2ccc(-c3ccc(OC(F)(F)F)cn3)cc2)o1 (single isomer, unassigned) [Example 24] | 161 nM | 129% | 2400 nM |  | 
CC(C)(c1nnc(-c2cc3c(cc2F)C(F)(F)C[C@@H](N)C(=O)N3Cc2ccc(-c3ccc(OC(F)(F)F)cn3)cc2)o1)S(C)(=O)=O (single isomer, unassigned) [Example 26] | 950 nM | 155% | 8820 nM |  | 
CC(C)(C#N)c1nnc(-c2cc3c(cc2F)C(F)(F)C[C@@H](N)C(=O)N3Cc2ccc(-c3cc(C(F)(F)F)ccn3)cc2)o1 (single isomer, unassigned) [Example 27] | 598 nM | 79% | 1820 nM |  | 
CC(C)(C#N)c1nnc(-c2cc3c(cc2F)C(F)(F)C[C@@H](N)C(=O)N3Cc2ccc(-c3ccc(C(F)(F)F)cc3)nc2)o1 (single isomer, unassigned) [Example 28] | 978 nM | 96% | 11200 nM |  | 
CC(C)(c1nnc(-c2cc3c(cc2F)C(F)(F)C[C@@H](N)C(=O)N3Cc2ccc(-n3cc(C(F)(F)F)cn3)cc2)o1)S(C)(=O)=O (single isomer, unassigned) [Example 29] | 91.7 nM | 93% | 13900 nM |  | 
CC(C)(C#N)c1nnc(-c2cc3c(cc2F)C(F)(F)C[C@@H](N)C(=O)N3Cc2ccc(-n3ccc(C(F)(F)F)n3)cc2)o1 (single isomer, unassigned) [Example 30] | 589 nM | 94% | 10200 nM |  | 
CC(C)(c1nnc(-c2cc3c(cc2F)C(F)(F)C[C@@H](N)C(=O)N3Cc2ccc(-c3ccc(C(F)(F)F)cc3)cc2)o1)S(C)(=O)=O (single isomer, unassigned) [Example 32] | 2340 nM | 81% | 33800 nM |  | 
COCCN1CC(c2nnc(-c3cc4c(cc3F)C(F)(F)C[C@@H](N)C(=O)N4Cc3ccc(-c4ccc(C(F)(F)F)cn4)cc3)o2)CC(F)(F)C1 (single isomer, unassigned) [Example 34] | 1220 nM | 75% | 11100 nM |  | 
COC(=O)N1CC2CC(c3nnc(-c4cc5c(cc4F)C(F)(F)C[C@@H](N)C(=O)N5Cc4ccc(-c5ccc(C(F)(F)F)cn5)cc4)o3)(C2)C1 (single isomer, unassigned) [Example 35] | 124 nM | 128% | > 19000 nM |  | 
COC(=O)N1CC2CC(c3nnc(-c4cc5c(cc4F)C(F)(F)C[C@@H](N)C(=O)N5Cc4ccc(Cl)cc4)o3)(C2)C1 (single isomer, unassigned) [Example 36] | 168 nM | 82% | 5920 nM |  | 
CC(F)(F)c1ccc(-c2ccc(CN3C(=O)[C@H](N)CC(F)(F)c4cc(F)c(-c5nnc(C(C)(C)C#N)o5)cc43)cc2)nc1 (single isomer, unassigned) [Example 37] | 215 nM | 138% | 2850 nM |  | 
COc1ccc(-c2ccc(CN3C(=O)[C@H](N)CC(F)(F)c4cc(F)c(-c5nnc(C(C)(C)C#N)o5)cc43)cc2)nc1 (single isomer, unassigned) [Example 38] | 1020 nM | 105% | 5800 nM |  | 
COc1ccc(-c2ccc(CN3C(=O)[C@H](N)CC(F)(F)c4cc(F)c(-c5nnc(C(C)(C)S(C)(=O)=O)o5)cc43)cc2)nc1 (single isomer, unassigned) [Example 39] | 1420 nM | 98% | 38800 nM |  | 
CC(C)(C#N)c1nnc(-c2cc3c(cc2F)C(F)(F)C[C@@H](N)C(=O)N3Cc2ccc(-c3ccc(C(F)F)cn3)cc2)o1 (single isomer, unassigned) [Example 40] | 655 nM | 99% | 2500 nM |  | 
CC(C)(C#N)c1nnc(-c2cc3c(cc2F)C(F)(F)C[C@@H](N)C(=O)N3Cc2ccc(-c3ccc(OC(F)F)cn3)cc2)o1 (single isomer, unassigned) [Example 41] | 196 nM | 113% | 8220 nM |  | 
COC(=O)N1CC2CC(c3nnc(-c4cc5c(cc4F)C(F)(F)CC(N)C(=O)N5Cc4ccc(-c5noc(C(F)(F)F)n5)cc4)o3)(C2)C1 (single isomer, unassigned) [Example 42] | 1260 nM | 117% | 2220 nM |  | 
CC(C)(C)c1nnc(-c2cc3c(cc2F)C(F)(F)CC(N)C(=O)N3Cc2ccc(OC(F)(F)F)cc2)o1 (stereo not drawn) [Example 1, 3-amino-8-(5-tert-butyl-1,3,4-oxadiazol-2-yl)-5,5,7-trifluoro-1-[[4-(trifluoromethoxy)phenyl]methyl]-3,4-dihydro-1-benzazepin-2-one] | 2590 nM | 74% | 19900 nM |  | 
(3S)-3-amino-5,5,7-trifluoro-8-(5-morpholino-1,3,4-oxadiazol-2-yl)-1-[[4-(trifluoromethoxy)phenyl]methyl]-3,4-dihydro-1-benzazepin-2-one and (3R)-3-amino-5,5,7-trifluoro-8-(5-morpholino-1,3,4-oxadiazol-2-yl)-1-[[4-(trifluoromethoxy)phenyl]methyl]-3,4-dihydro-1-benzazepin-2-one [Example 3] |  |  | 2890 nM | 550 nM | 57 % activation
